Assay results reported in ChEMBL document CHEMBL1152051, “Synthesis and preliminary pharmacological evaluation of 2-benzyloxy substituted aryl ketones as 5-HT4 receptor antagonists” (Bioorg Med Chem Lett, 1994).

Assays:
[1] = biological target: 5-hydroxytryptamine receptor 4 (Rattus norvegicus) (UniProt Q62758); assay: Compound was tested against 5-HT4 receptor through antagonism of 5-HT mediated relaxation of rat, carbachol contracted esophageal muscularis mucosae; type: functional
[2] = biological target: 5-hydroxytryptamine receptor 4 (Cavia porcellus, UniProt O70528); assay: Compound was tested for binding affinity against 5-HT4 receptor in guinea pig striata using [3H]GR-113808 as radioligand
Chain of 5-hydroxytryptamine receptor 4 (Cavia porcellus, UniProt O70528) (O70528 whole entry): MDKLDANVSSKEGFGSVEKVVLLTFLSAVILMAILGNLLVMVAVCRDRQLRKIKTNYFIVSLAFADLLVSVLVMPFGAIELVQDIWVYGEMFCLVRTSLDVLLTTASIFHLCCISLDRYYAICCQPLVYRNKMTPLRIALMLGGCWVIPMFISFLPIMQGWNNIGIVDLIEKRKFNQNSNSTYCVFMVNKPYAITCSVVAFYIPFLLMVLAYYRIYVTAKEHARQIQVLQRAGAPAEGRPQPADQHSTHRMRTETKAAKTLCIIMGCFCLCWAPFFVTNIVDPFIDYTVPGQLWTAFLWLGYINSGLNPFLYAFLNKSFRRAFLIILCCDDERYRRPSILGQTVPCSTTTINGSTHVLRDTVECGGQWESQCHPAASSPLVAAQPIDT

[3] = biological target: 5-hydroxytryptamine receptor 4 (Rattus norvegicus, UniProt Q62758); assay: Compound was tested against 5-HT4 receptor through agonism of 5-HT mediated relaxation of rat, carbachol contracted esophageal muscularis mucosae; type: functional
Chain of 5-hydroxytryptamine receptor 4 (Rattus norvegicus, UniProt Q62758) (Q62758 whole entry): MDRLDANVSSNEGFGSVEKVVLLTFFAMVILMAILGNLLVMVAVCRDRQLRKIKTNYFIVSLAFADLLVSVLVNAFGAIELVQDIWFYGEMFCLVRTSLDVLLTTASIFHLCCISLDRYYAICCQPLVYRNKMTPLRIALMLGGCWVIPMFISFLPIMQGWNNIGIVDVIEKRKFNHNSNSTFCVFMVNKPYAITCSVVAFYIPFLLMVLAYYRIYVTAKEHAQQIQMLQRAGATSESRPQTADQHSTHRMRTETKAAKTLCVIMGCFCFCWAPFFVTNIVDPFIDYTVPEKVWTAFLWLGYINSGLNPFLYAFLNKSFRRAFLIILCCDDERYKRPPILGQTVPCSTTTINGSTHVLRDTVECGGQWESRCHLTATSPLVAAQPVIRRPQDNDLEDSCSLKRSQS

Chain of 5-hydroxytryptamine receptor 4 (Rattus norvegicus) (Q62758 whole entry): as above

COc1cc(COc2cc(N)c(Cl)cc2C(=O)CCCCN2CCC(CCNS(C)(=O)=O)CC2)cc(OC)c1
pKb [1]: 8.1

COc1cc(COc2cc(N)c(Cl)cc2C(=O)CCC2CCN(CCNS(C)(=O)=O)CC2)cc(OC)c1
pKb [1]: 9.2
Ki [2]: 0.741 nM

COc1cc(COc2cc(N)c(Cl)cc2C(=O)CCC2CCN(CCCNS(C)(=O)=O)CC2)cc(OC)c1
pKb [1]: 8.8
Ki [2]: 0.339 nM

CCCC1CCN(CCCCC(=O)c2cc(Cl)c(N)cc2OCc2cc(OC)cc(OC)c2)CC1
pKb [1]: 7.7

CCCOc1cc(N)c(Cl)cc1C(=O)CCCCN1CCCCC1
EC50 [3]: 2000 nM

COc1cc(COc2cc(N)c(Cl)cc2C(=O)CCCCN2CCC(NS(C)(=O)=O)CC2)cc(OC)c1
pKb [1]: 8.4

COc1cc(COc2cc(N)c(Cl)cc2C(=O)CCCCN2CCC(OC)CC2)cc(OC)c1
pKb [1]: 8.4

COc1ccc(COc2cc(N)c(Cl)cc2C(=O)CCCCN2CCCCC2)cc1
pKb [1]: 8.4

COc1cc(COc2cc(N)c(Cl)cc2C(=O)CCCCN2CCCCC2)cc(OC)c1
pKb [1]: 8.5

COc1ccc(COc2cc(N)c(Cl)cc2C(=O)CCCCN2CCCCC2)cc1OC
pKb [1]: 8.5

COc1cc(COc2cc(N)c(Cl)cc2C(=O)CCCCN2CCC(c3ccccc3)CC2)cc(OC)c1
pKb [1]: 7.7

COc1cc(COc2cc(N)c(Cl)cc2C(=O)CCCCN2CCC(C)CC2)cc(OC)c1
pKb [1]: 8.3

CS(=O)(=O)NCCN1CCC(CCC(=O)c2cc(Cl)c(N)cc2OCc2ccccc2)CC1
pKb [1]: 8.1
Ki [2]: 1.78 nM

CCOc1cc(N)c(Cl)cc1C(=O)CCCCN1CCCCC1
pKb [1]: < 7

COc1cc(COc2cc(N)c(Cl)cc2C(=O)CCC2CCN(CCN(C)S(C)(=O)=O)CC2)cc(OC)c1
pKb [1]: 9.1
Ki [2]: 0.468 nM

COc1cc(COc2cc(N)c(Cl)cc2C(=O)CCCCN2CCC(O)CC2)cc(OC)c1
pKb [1]: 8.3

COc1ccc(CCOc2cc(N)c(Cl)cc2C(=O)CCCCN2CCCCC2)cc1OC
pKb [1]: 6.8

COc1cc(COc2cc(N)c(Cl)cc2C(=O)CCCCN2CCC(CNS(C)(=O)=O)CC2)cc(OC)c1
pKb [1]: 8.9

CCCCCN1CCC(CCC(=O)c2cc(Cl)c(N)cc2OCc2cc(OC)cc(OC)c2)CC1
pKb [1]: 9.1
Ki [2]: 0.813 nM

COc1cc(COc2cc(N)c(Cl)cc2C(=O)CCCCN2CCC(NC(N)=O)CC2)cc(OC)c1
pKb [1]: 8.5

CCCCN1CCC(COC(=O)c2cc(Cl)c(N)c3c2OCCO3)CC1
Ki [2]: 0.0129 nM

CCCCN1CCC(CCC(=O)c2cc(Cl)c(N)cc2OCc2cc(OC)cc(OC)c2)CC1
pKb [1]: 8.9
Ki [2]: 0.479 nM

COc1cc(COc2cc(N)c(Cl)cc2C(=O)CCCCN2CCC(C(N)=O)CC2)cc(OC)c1
pKb [1]: 8.4

COc1cc(N)c(Cl)cc1C(=O)CCCCN1CCCCC1
EC50 [3]: 39.8 nM

Cn1cc(C(=O)OCC2CCN(CCNS(C)(=O)=O)CC2)c2ccccc21
pKb [1]: 9
